Legend:
Assay type in all cases: in vivo
Alternaria brassicae = Alternaria brassicae (protective action) on cabbage seedlings; conditions: 50 ppm spray, cabbage cv. Vorbote, evaluated 2-5 days after infection, read-out: action (leaf area infected with Alternaria brassicae as a percentage compared with the infected, untreated control)
Protocol: Alternaria brassicae (Protective Action)
4 cabbage seedlings, cv. “Vorbote”, in the 6-leaf stage, distributed to 2 pots, are sprayed thoroughly with a spray mixture prepared with a wettable powder of the active substance (with 50 ppm of active ingredient) and subsequently cultured further in a controlled-environment cabinet at 19° C. and with 16 hours illumination per day. Two days after the treatment, the plants are infected by spraying with an aqueous conidia suspension (approx. 30,000 conidia/ml). The cabbage plants are then incubated at 24-26° C., under dew-point conditions and with a photoperiod of 16 hours. The test is evaluated 2-5 days after the infection by determining the leaf area infected with Alternaria brassicae as a percentage compared with the infected, untreated control.

Erysiphe graminis = Erysiphe graminis (protective action) on wheat seedlings; conditions: Blumeria graminis, 168 h, 160 ppm spray, wheat cv. Lita, evaluated 7 days after infection, read-out: action (leaf area covered in Erysiphe graminis as a percentage compared with the infected control)
Protocol: Erysiphe graminis (Protective Action)
30-40 wheat seedlings cv. “Lita” in the 1-leaf stage (distributed to two pots of ø7 cm) are sprayed thoroughly with a spray mixture prepared with a wettable powder of the active substance (with 160 ppm of active ingredient) and then cultured further in the greenhouse. One day after the treatment, the plants are dusted with conidia of Erysiphe graminis. The test is evaluated 7 days after the infection by determining the size of the leaf area covered in Erysiphe graminis as a percentage compared with the infected control.
Untreated, but infected control plants show a level of infection with Erysiphe of 100%.

Venturia inaequalis = Venturia inaequalis (curative action) on apple seedlings; conditions: 50 ppm spray, apple cv. Golden Delicious, evaluated 9-10 days after treatment, read-out: action (leaf area covered in Venturia inaequalis as a percentage compared with the infected control)
Protocol: Venturia inaequalis (Curative Action)
Two apple seedlings cv. “Golden Delicious” are sprayed with a conidia suspension of Venturia inaequalis and subsequently incubated at 18° C. and under dew-point conditions. After 24 hours, the plants are sprayed thoroughly from all sides with a spray mixture prepared with a wettable powder of the active substance (with 50 ppm of active ingredient). The treated apple seedlings are subsequently cultured further in the greenhouse. 9-10 days after the treatment, the test is evaluated by determining the leaf area covered in Venturia inaequalis as a percentage compared with the infected control.

Cercospora arachidicola = assay: Action against Cercospora arachidicola on peanut plants (curative action); conditions: Mycosphaerella arachidis, 288 h, 160 ppm spray, peanut cv. Tamnut, evaluated 12 days after treatment, read-out: action (leaf area infected with Cercospora arachidicola as a percentage compared with the infected control)
Protocol: Action Against Cercospora arachidicola on Peanut Plants (Curative Action)
Two peanut plants cv. “Tamnut” in the 4-leaf stage are sprayed with a conidia suspension of Cercospora arachidicola (approx. 200,000 conidia/ml) and subsequently incubated at 25-26° C. and under dew-point conditions. After two days, the plants are sprayed thoroughly from all sides with a spray mixture prepared with a wettable powder of the active substance (with 160 ppm of active ingredient). The treated plants are subsequently incubated in a controlled-environment cabinet under the following conditions: 25-27° C. and 80% atmospheric humidity during the day, 20° C. and dew-point conditions during the night; the photoperiod in each case is 16 hours. 12 days after the treatment, the test is evaluated by determining the leaf area infected with Cercospora arachidicola as a percentage compared with the infected control.

Plasmopara viticola = Plasmopara viticola (protective action) on grapevine seedlings; conditions: 144 h, 160 ppm spray, grapevine cv. Riesling x Sylvaner, day 6 after infection, read-out: action (leaf area infected with Plasmopara viticola as a percentage compared with the infected, untreated control)
Protocol: Plasmopara viticola (Protective Action)
2 grapevine seedlings cv. Riesling×Sylvaner, each in the 4-5 leaf stage, are sprayed thoroughly from all sides with a spray mixture prepared with a wettable powder of the active substance (with 160 ppm of active ingredient) and subsequently cultured further in a controlled-environment cabinet at 17° C., 70-80% relative atmospheric humidity and with a photoperiod of 16 hours. After 6 days, the test plants are infected by spraying the undersides of the leaves with zoosporangia of Plasmopara viticola, suspended in distilled water (approx. 300,000 sporangia/ml). The grapevine plants are then incubated as follows: 1 day at 22° C. and under dew-point conditions in the dark and subsequently 4 days in the greenhouse. To induce fructification of Plasmopara viticola, the grapevines are transferred to a controlled-environment cabinet with dew-point conditions at 22° C. on day 5 after the infection.
The tests are carried out in each case on day 6 after the infection by determining the leaf area infected with Plasmopara viticola as a percentage compared with the infected, untreated control.

| Compound | pest or weed control at 50 ppm (Alternaria brassicae) | pest or weed control at 160 ppm (Erysiphe graminis) | pest or weed control at 50 ppm (Venturia inaequalis) | pest or weed control at 160 ppm (Cercospora arachidicola) | other results |
| --- | --- | --- | --- | --- | --- |
| CO/N=C(\C(=O)OC)c1ccccc1CON=C(C)c1ccc(Cl)c(Cl)c1 [Compound 13] | > 75% | > 75% | > 75% | > 75% |  |
| CO/N=C(\C(=O)OC)c1ccccc1CON=C(C)c1cccs1 [Compound 14] | > 75% |  | > 75% | > 75% |  |
| CCCC(=NOCc1ccccc1/C(=N/OC)C(=O)OC)c1ccccc1 [Compound 18] |  | > 75% |  |  |  |
| CO/N=C(\C(=O)OC)c1ccccc1CON=C(C)c1ccc(OC)cc1 [Compound 19] |  |  | > 75% | > 75% |  |
| CO/N=C(\C(=O)OC)c1ccccc1CON=C(C)c1cc(OC)c(OC)c(OC)c1 [Compound 20] | > 75% |  | > 75% |  |  |
| CO/N=C(\C(=O)OC)c1ccccc1CON=C(C)c1cccc(Br)c1 [Compound 22] | > 75% |  | > 75% | > 75% | pest or weed control at 160 ppm (Plasmopara viticola): > 75% |
| CO/N=C(\C(=O)OC)c1ccccc1CON=C(C)C(C)=CC=C(C)CCC=C(C)C [Compound 23] | > 75% | > 75% |  |  |  |
| CO/N=C(\C(=O)OC)c1ccccc1CON=C(C)c1ccc([N+](=O)[O-])cc1 [Compound 25] | > 75% | > 75% |  | > 75% |  |
| CO/N=C(\C(=O)OC)c1ccccc1CON=C(C)c1cccc([N+](=O)[O-])c1 [Compound 26] | > 75% |  |  | > 75% |  |
| CO/N=C(\C(=O)OC)c1ccccc1CON=C(c1ccccc1)C(F)(F)F [Compound 27] |  | > 75% |  |  |  |
| CCC(=NOCc1ccccc1/C(=N/OC)C(=O)OC)c1ccccc1 [Compound 28] | > 75% |  | > 75% |  | pest or weed control at 160 ppm (Plasmopara viticola): > 75% |
| CO/N=C(\C(=O)OC)c1ccccc1CON=C(C)C(C)Oc1ccccc1 (centres unmarked) [Compound 37] |  | > 75% |  |  |  |
| CO/N=C(\C(=O)OC)c1ccccc1CON=C(c1cccc(C(F)(F)F)c1)C(F)(F)F [Compound 39] |  | > 75% |  |  |  |
| CO/N=C(\C(=O)OC)c1ccccc1CON=C(C)c1cccc(F)c1 [Compound 40] |  | > 75% |  | > 75% |  |
| CO/N=C(\C(=O)OC)c1ccccc1CON=C(c1ccc2c(c1)OCO2)C1CC1 [Compound 41] |  |  |  | > 75% | pest or weed control at 160 ppm (Plasmopara viticola): > 75% |
| CO/N=C(\C(=O)OC)c1ccccc1CON=C(C)c1ccc(OC)c(CSC)c1 [Compound 49] |  |  | > 75% | > 75% |  |
| CO/N=C(\C(=O)OC)c1ccccc1CON=C(C)Cc1ccc2c(c1)OCO2 [Compound 54] | > 75% |  | > 75% |  |  |
| CO/N=C(\C(=O)OC)c1ccccc1CON=C(C)C(=O)c1ccc2c(c1)OCO2 [Compound 64] |  |  | > 75% |  |  |
| C=CCOc1cccc(C(C)=NOCc2ccccc2/C(=N/OC)C(=O)OC)c1 [Compound 66] |  |  | > 75% | > 75% |  |
| C#CCOc1cccc(C(C)=NOCc2ccccc2/C(=N/OC)C(=O)OC)c1 [Compound 67] | > 75% |  |  |  |  |
| CO/N=C(\C(=O)OC)c1ccccc1CON=C(C)c1cccc(OCC2CC2)c1 [Compound 68] |  |  |  | > 75% |  |
| CO/N=C(\C(=O)OC)c1ccccc1CON=C(C)c1cccc(C#N)c1 [Compound 70] |  | > 75% |  |  |  |
| CO/N=C(\C(=O)OC)c1ccccc1CON=C(C)c1cccc(SC#N)c1 [Compound 71] |  |  |  | > 75% |  |
| CO/N=C(\C(=O)OC)c1ccccc1CON=C(C)c1ccc(OC)c([N+](=O)[O-])c1 [Compound 82] |  |  | > 75% |  | pest or weed control at 160 ppm (Plasmopara viticola): > 75% |

| Compound | pest or weed control at 50 ppm (Alternaria brassicae) | pest or weed control at 160 ppm (Erysiphe graminis) | pest or weed control at 50 ppm (Venturia inaequalis) | pest or weed control at 160 ppm (Cercospora arachidicola) | other results |
| --- | --- | --- | --- | --- | --- |
| COCc1cc(C(C)=NOCc2ccccc2/C(=N/OC)C(=O)OC)ccc1OC [Compound 83] |  |  | > 75% | > 75% |  |
| CCOc1cc(C(C)=NOCc2ccccc2/C(=N/OC)C(=O)OC)ccc1OC [Compound 85] |  |  | > 75% |  |  |
| CO/N=C(\C(=O)OC)c1ccccc1CON=C(c1ccc(F)cc1)C1CC1 [Compound 89] |  | > 75% |  |  |  |
| CO/N=C(\C(=O)OC)c1ccccc1CON=C(C)c1cccc(OCC#N)c1 [Compound 92] | > 75% |  |  |  |  |
| CO/N=C(\C(=O)OC)c1ccccc1CON=CC(=O)c1cccs1 [Compound 105] | > 75% | > 75% | > 75% |  |  |
| CO/N=C(\C(=O)OC)c1ccccc1CON=C(C)c1ccc(OC(F)(F)C(F)(F)F)cc1 [Compound 106] |  |  | > 75% |  |  |
| CO/N=C(\C(=O)OC)c1ccccc1CON=C(C)c1ccc2cc(OC)ccc2c1 [Compound 119] |  | > 75% |  |  |  |
| CO/N=C(\C(=O)OC)c1ccccc1CON=C(SC)c1ccccc1 [Compound 124] | > 75% |  | > 75% |  |  |
| CO/N=C(\C(=O)OC)c1ccccc1CON=C(SC)c1ccc(Cl)cc1 [Compound 125] |  |  |  |  | pest or weed control at 160 ppm (Plasmopara viticola): > 75% |
| CO/N=C(\C(=O)OC)c1ccccc1CON=C(SC)c1cccc(C(F)(F)F)c1 [Compound 126] |  | > 75% |  |  |  |
| CO/N=C(\C(=O)OC)c1ccccc1CON=C(OC)c1ccc(Cl)cc1 [Compound 127] |  | > 75% |  |  |  |
| CO/N=C(\C(=O)OC)c1ccccc1CON=C(C)C(=O)c1cccc(Br)c1 [Compound 129] |  |  |  | > 75% | pest or weed control at 160 ppm (Plasmopara viticola): > 75% |
| CO/N=C(\C(=O)OC)c1ccccc1CON=C(C)C(=O)c1cccc([N+](=O)[O-])c1 [Compound 130] | > 75% |  |  | > 75% |  |
| CO/N=C(\C(=O)OC)c1ccccc1CON=C(C)c1ccccc1 [Compound 134] |  |  | > 75% |  |  |
| CO/N=C(\C(=O)OC)c1ccccc1CON=C(C)c1cc(Cl)cc(Cl)c1 [Compound 136] | > 75% |  |  |  |  |
| CO/N=C(\C(=O)OC)c1ccccc1CON=C(C)c1cc(C)ccc1F [Compound 137] |  | > 75% |  |  |  |
| CO/N=C(\C(=O)OC)c1ccccc1CON=C(c1cccc(Cl)c1)C(F)(F)F [Compound 141] |  | > 75% |  |  |  |
| CO/N=C(\C(=O)OC)c1ccccc1CON=C(c1ccc(Cl)cc1)C(F)(F)F [Compound 142] |  |  | > 75% |  |  |
| CO/N=C(\C(=O)OC)c1ccccc1CON=C(c1ccc2ccccc2c1)C(F)(F)F [Compound 143] | > 75% |  |  |  |  |
| CO/N=C(\C(=O)OC)c1ccccc1CON=C(c1cccc(Cl)c1)C1CC1 [Compound 145] |  |  |  | > 75% |  |
| CO/N=C(\C(=O)OC)c1ccccc1CON=C(c1cccc(Br)c1)C1CC1 [Compound 147] |  |  | > 75% |  | pest or weed control at 160 ppm (Plasmopara viticola): > 75% |
| CO/N=C(\C(=O)OC)c1ccccc1CON=C(c1ccc(Oc2ccccc2)cc1)C1CC1 [Compound 149] |  | > 75% |  |  |  |
| CO/N=C(\C(=O)OC)c1ccccc1CON=C(c1ccc2ccccc2c1)C1CC1 [Compound 150] | > 75% |  |  |  | pest or weed control at 160 ppm (Plasmopara viticola): > 75% |
